Measured values published in patent publication US9109155B2, “Heterocycle-functionalized luminogens exhibiting aggregation-induced emission” (THE HONG KONG UNIVERSITY OF SCIENCE AND TECHNOLOGY, priority 2013, dated 2015).
Entries after “also recorded” stand apart in the source; their conditions may differ. One block for each compound: values may come before it.

What was measured:
subcutaneous C6 tumor = assay: In vivo and ex vivo fluorescence imaging of apoptosis in C6 tumor-bearing mice
Description: Only apoptotic tumors were clearly visualized.
Subcutaneous C6 tumor-bearing mice with and without intravenous injection of STS were imaged for 30 min using an IVIS spectrum imaging system. […] In contrast, the fluorescence signals from the tumor-bearing animals without treatment of STS and normal tissues are very weak. […] Additionally, the fluorescence changes in tumoral and normal tissues as a function of time for each experiment are shown in FIG. 50b. A 3-fold fluorescence enhancement of the apoptotic tumoral tissues relative to normal tissues is observed as early as 5 min after injection of Ac-DEVD-PyTPE, but only a slight fluorescence increase is observed over 15 min.
FIG. 50c show IVIS spectrum analysis of apoptotic and non-apoptotic tumors that were excised immediately after in vivo imaging.

caspase-3 = target: T1, caspase-3 (Homo sapiens, UniProt P42574); assay: Ac-DEVD-PyTPE fluorescence turn-on assay with caspase-3 in PIPES buffer; format: biochemical
T1 sequence (P42574 29-175 limits assumed): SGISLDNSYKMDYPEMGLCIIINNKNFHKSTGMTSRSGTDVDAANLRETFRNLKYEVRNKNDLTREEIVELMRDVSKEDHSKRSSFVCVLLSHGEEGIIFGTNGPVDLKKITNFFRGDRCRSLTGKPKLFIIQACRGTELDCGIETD
T1 sequence (P42574 176-277 limits assumed): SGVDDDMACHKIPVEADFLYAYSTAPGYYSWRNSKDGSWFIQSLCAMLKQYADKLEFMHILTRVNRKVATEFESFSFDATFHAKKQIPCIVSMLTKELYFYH
Description: [caspase-3]=5 μg mL^−1, [Ac-DEVD-PyTPE]=10 μM.
(§1) Inset: photographs taken under UV illumination. λex=405 nm; λem=610 nm.
Particles with an average diameter of 92 nm formed in addition to the increase of fluorescence in the solution (FIG. 43a). […] The caspase-3/7 catalyzed hydrolysis of Ac-DEVD-PyTPE is shown in the reaction scheme below.
In the absence of caspase-3, nearly no change in fluorescence is observed, confirming that Ac-DEVD-PyTPE is specifically recognized and cleaved by caspase-3.
(§2) As shown, caspase-3 and caspase-7 display respectively about 43- and 36-fold higher changes in (I−I0)/I0 than the other four enzymes.

[1] = Metabolic viability of MCF-7 cancer cells after incubation with probe; format: cell-based; settings: human, 5, 10 and 20 μM for 12, 24 and 48 h, read-out: cell viability
Source text: This is indicative of the low cytotoxicity of the Ac-DEVD-PyTPE probe.

caspase-7 = target: T2, caspase-7 (Homo sapiens, UniProt P55210); assay: Ac-DEVD-PyTPE fluorescence turn-on assay with caspase-7; format: biochemical; settings: caspase-7 vs pepsin, trypsin, papain, lysozyme; protein 20 μg mL^−1; λex 405 nm, λem 610 nm
T2 sequence (P55210 24-198 limits assumed): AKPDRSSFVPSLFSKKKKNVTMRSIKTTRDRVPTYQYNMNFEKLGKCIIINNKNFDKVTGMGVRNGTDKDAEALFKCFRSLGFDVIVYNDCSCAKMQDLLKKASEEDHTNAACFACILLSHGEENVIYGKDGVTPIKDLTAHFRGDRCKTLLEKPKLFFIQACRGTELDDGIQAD
T2 sequence (P55210 207-303 limits assumed): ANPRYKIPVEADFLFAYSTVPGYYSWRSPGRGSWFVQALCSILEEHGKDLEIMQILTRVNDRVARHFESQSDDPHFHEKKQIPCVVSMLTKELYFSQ
Source text: as §1, §2

[2] = test system: caspase-3 activity in MCF-7 cells; assay: CLSM imaging of caspase-3 activity / apoptosis in MCF-7 cells; format: cell-based
Description: FIGS. 46a-46c show normal MCF-7 cells treated with Ac-DEVD-PyTPE (5 μM, 1% DMSO) for 2 h.
FIGS. 46d-46f show apoptotic MCF-7 cells treated with Ac-DEVD-PyTPE (5 μM, 1% DMSO) and caspase-3 antibody. STS (3 μM) was used to induce cell apoptosis. Red=probe fluorescence; Green=immunofluorescence signal generated from anti-caspase-3 primary antibody and a FITC labeled secondary antibody.
All images were acquired in the same way.
Additionally, apoptotic MCF-7 cells were treated with both Ac-DEVD-PyTPE and commercial Annexin V-Alexa Fluor.

HeLa cells = assay: Photobleaching under continuous laser excitation in stained HeLa cells; format: cell-based; settings: continuous excitation 180 s, 0.6 mW; 405 nm for TPEPy-PF6, 588 nm for MitoTracker Red
MCF-7 cells = assay: In situ screening of apoptosis inducers in MCF-7 cells with Ac-DEVD-PyTPE; format: cell-based; settings: 3 μM in DMSO, 2 h; compared with sodium ascorbate and cisplatin
Description: [Ac-DEVD-PyTPE]=3 μM. All images were acquired in the same way.
Three known apoptosis inducers, sodium ascorbate, cisplatin and STS, were used to treat MCF-7 cells. After the cells were incubated with Ac-DEVD-PyTPE for 2 h, each compound (3 μM in DMSO) was added into the chamber for an additional 2 h incubation. The apoptosis-inducing capabilities of these agents were evaluated by monitoring the cell fluorescence increase with a confocal microscopy.

C6 tumor = assay: In vivo screening of apoptosis inducing agents in C6 tumor-bearing mice; settings: treated overnight, probe injected into tumor, 15 min; compared with DMSO, cisplatin, sodium ascorbate
Description: C6 tumor-bearing mice were treated with several compounds, namely DMSO, STS, cisplatin (CIS), and sodium ascorbate (Na asb), overnight, and Ac-DEVD-PyTPE was subsequently injected into the tumor directly. After 15 min incubation, the mice were imaged using an IVIS spectrum imaging system.

Solubility = settings: for solubility in common organic solvents: THF, toluene, DCM, chloroform
[3] = Fluorescent sensing of Hg2+ in aqueous buffer and in solid film
Description: I0=the emission intensity at 640 nm in absence of Hg^2+. Inset: photographs of TPEBe-I in aqueous buffer with [Hg^2+] of 0 and 2.0 mM taken under 365 nm UV illumination. Solution concentration: 20 μM; excitation wavelength: 480 nm.
Black bars represent the addition of different metal ion (2 mM) to solution of the TPEBe-I. Red bars represent the subsequent addition of 2 mM Hg^2+ to the solution. λex=480 nm. λem=640 nm.
Accordingly, in one embodiment, the present subject matter relates to the use of Hg^2+ to bind to iodine ions in TPEBe-I in order to restore the emission of the cationic luminogen. […] In addition, the spectrum slightly red-shifted with increasing concentration of Hg^2+. […] When the concentration of Hg^2+ is 2.0 mM, the emission intensity of TPEBe-I is enhanced 80-fold. Moreover, the emission color also changes from dark into bright red under 365 nm UV illumination. Accordingly, another embodiment of the present subject matter relates to the use of TPEBe-I luminogens as an “off-on” sensor for Hg^2+ in aqueous solution.
In addition, the present subject matter relates to using the TPEBe-I luminogen as a fluorescent sensor for Hg^2+.
This is likely due to protons combining with iodine ions, leading to a faint increase in emission. In contrast, under basic conditions (pH≧7), TPEBe-I in the absence of Hg^2+ is weakly emissive due to the quenching effect of the iodine ions. […] The emission intensity decreases at a pH greater than 8, but is still higher than the emission intensity of TPEBe-I in the absence of Hg^2+. […] The lower emission intensity of TPEBe-I under more basic conditions is attributed to the formation of Hg(OH)2, thereby reducing the amount of free Hg^2+. In addition, the hydroxyl group (OH) in basic conditions can destroy the structure of TPEBe-I, resulting in inactivation of its sensing ability.
In another embodiment, a solid-state fluorescent probe for the detection of Hg^2+ was developed using the TPEBe-I luminogen. […] As shown, the spots of film polluted by the aqueous solution containing Hg^2+ changed to a red color with varying degrees while the untreated surrounding areas show the initial dark color. This illustrates that the solid-state film of TPEBe-I has a very sensitive response to Hg^2+ in a pure aqueous solution. Therefore, one embodiment of the present subject matter relates to the use a TPEBe-I solid-state fluorescent probe for detecting and tracking the amount of Hg^2+ in an aqueous solution. In one embodiment, the detection amount can reach 1 μM ([…]).

[4] = Fluorescent sensing of ATP in aqueous solution with 1% DMSO
Description: I0=PL intensity at 620 nm in absence of ATP. Inset in B: plot of (I−I0)/I0 value versus concentration of ATP from 0 to 20 μM.
I0=photoluminescence intensity at 620 nm in absence of nucleotide. Inset: Photographs of TPBBe-I in aqueous solution with 1% DMSO with various nucleotides (600 μM) taken under 365 nm UV illumination.
When the concentration of ATP is 600 μM, the emission intensity of TPEBe-I increases 20-fold. Moreover, the emission color also changes from dark into bright red under 365 nm UV illumination (FIG. 53b). […] Obviously, the value of (I−I0)/I0 has a linear relationship with ATP from 0 to 20 μM.
The fluorescence response of TPEBe-I was carried out using ATP, ADP and AMP. […] Accordingly, one embodiment relates to the use of TPEBe-I as a highly sensitive and selective fluorescent sensor for ATP.

[5] = test system: mitochondria of HeLa cells; assay: Living HeLa cell staining and co-staining with MitoTracker Red; format: cell-based; settings: 15 min
Description: In a further embodiment, the present subject matter is directed to the use of the TPEPy-PF6 luminogen as a fluorescent stain for living cell imaging. Nanoaggregates of TPEPy-PF6 were prepared in minimum essential medium/DMSO mixtures and the HeLa cells were imaged using a standard cell-staining protocol. The living cells were incubated with TPEPy-PF6 (5 μM) for 15 min and then washed three times with phosphate buffered saline solution.
Living cells were incubated with both mitochondria-targeted dye MitoTracker Red (100 nM) and TPEPy-PF6 (5 μM) for 15 min at 37° C. by the above procedure. […] Therefore, one embodiment of the present subject matter relates to the use of the TPEPy-PF6 luminogen to exclusively stain the mitochondria of living cells.

[6] = excised immediately after in vivo imaging

SMILES: CC(=O)N[C@@H](CC(=O)O)C(=O)N[C@@H](CCC(=O)O)C(=O)N[C@H](C(=O)N[C@@H](CC(=O)O)C(=O)N[C@@H](Cc1cn(CCCC[n+]2ccc(/C=C/c3ccc(C(=C(c4ccccc4)c4ccccc4)c4ccccc4)cc3)cc2)nn1)C(N)=O)C(C)C [Ac-DEVD-PyTPE]
- fluorescence enhancement of apoptotic tumoral tissues relative to normal tissues (subcutaneous C6 tumor; STS pretreatment, 5 min after intratumoral injection of probe): 3 fold
- fluorescence of excised tumor/(+)STS tissues (subcutaneous C6 tumor; [6]): high fluorescence signal
- fluorescence of excised tumor/(−)STS tissues (subcutaneous C6 tumor; [6]): almost no fluorescence
- fluorescence of the probe treated with caspase-3 (caspase-3; PIPES buffer pH 7.2, caspase-3 5 μg mL^−1, probe 10 μM): strong fluorescence signals
- fold higher change in (I−I0)/I0 than the other four enzymes (caspase-3; caspase-3 vs pepsin, trypsin, papain, lysozyme, protein 20 μg mL^−1, λex 405 nm, λem 610 nm): about 43 fold
- viability [1]: ~100%
- fold higher change in (I−I0)/I0 than the other four enzymes (caspase-7): ~36 fold
- probe fluorescence in normal un-induced cells ([2]; 5 μM, 1% DMSO, 2 h): extremely low fluorescence signal
- probe fluorescence in STS-induced apoptotic cells ([2]; probe 5 μM, STS 3 μM): strong fluorescence signals

SMILES: COC[C@@H]1CCCN1S(=O)(=O)c1ccc2c(c1)C(=O)C(=O)N2 [MPS, 5-[(S)-(+)-2-(methoxymethyl)pyrrolidino]sulfonylisatin, reference compound]
- inhibition of caspase-3 cleavage of Ac-DEVD-PyTPE (fluorescence) (caspase-3; pre-treatment with inhibitor 10 μM, PIPES buffer): Most of the fluorescence was readily competed away
- probe fluorescence in STS-induced cells pre-treated with inhibitor ([2]; inhibitor 10 μM before incubation with Ac-DEVD-PyTPE): greatly reduced

SMILES: ClCc1ccc(C2=c3cc4c5c(c3Oc3c2cc2c6c3CCCN6CCC2)CCC[N+]=5CCC4)cc1.[Cl-] [MitoTracker Red, reference compound]
- luminescence intensity remaining relative to initial value (HeLa cells): about 20%

SMILES: CN[C@@H]1C[C@H]2O[C@@](C)([C@@H]1OC)n1c3ccccc3c3c4c(c5c6ccccc6n2c5c31)C(=O)NC4 [STS, staurosporine]
- apoptosis-inducing capability (cell fluorescence increase) (MCF-7 cells): strongest fluorescence enhancement
- efficacy of apoptosis inducing agent (tumor fluorescence) (C6 tumor): strongest fluorescence

SMILES: CC[n+]1c(/C=C/c2ccc(C(=C(c3ccccc3)c3ccccc3)c3ccccc3)cc2)sc2ccccc21 [TPEBe-ClO4]
- solubility in common organic solvents (Solubility): soluble
- solubility in water (Solubility): insoluble
- emission intensity upon addition of Hg^2+ ([3]; Hg^2+ 0-2.0 mM, pH 7.4 HEPES, 1% DMSO): also increased

SMILES: C[n+]1ccc(/C=C/c2ccc(C(=C(c3ccccc3)c3ccccc3)c3ccccc3)cc2)cc1 [TPEPy-PF6]
- solubility in water (Solubility): not soluble
- mitochondria staining: position, shape and amounts compared with MitoTracker Red ([5]; 5 μM with MitoTracker Red 100 nM, 37° C.): the same as for MitoTracker Red
- toxicity to living cells (cell morphology) ([5]; 5 μM): low toxicity
- luminescence intensity remaining relative to initial value (HeLa cells): ~70%

More lines, main results first:

- solubility in common organic solvents (Solubility): soluble
- solubility in water (Solubility): insoluble
SMILES: CC[n+]1c(/C=C/c2ccc(C(=C(c3ccccc3)c3ccccc3)c3ccccc3)cc2)sc2ccccc21 [TPEBe-I]
- emission intensity increase ([4]; ATP 600 μM, luminogen 20 μM, λex 480 nm): 20 fold
- emission change with ADP and AMP ([4]; other nucleotides, aqueous solution with 1% DMSO): negligible changes
- emission intensity enhancement ([3]; Hg^2+ 2.0 mM, luminogen 20 μM, pH 7.4 HEPES, 1% DMSO, λex 480 nm): 80 fold
- emission change with other metal ions ([3]; Zn, Ni, Co, Cd, Cu, Mn, Ca, Fe, Mg, Ag, Pd ions 2.0 mM): negligible changes
- detection amount of Hg^2+ ([3]; solid-state film, aqueous Hg^2+ 5 μL): 1 µM

- solubility in common organic solvents (Solubility): soluble
- solubility in water (Solubility): insoluble; also recorded: not soluble
SMILES: CC[n+]1c(/C=C/c2ccc(C(=C(c3ccccc3)c3ccccc3)c3ccccc3)cc2)sc2ccccc21 [TPEBe-PF6]
